According to patent US9420787B2, “Method for controlling noxious organisms” (SUMITOMO CHEMICAL COMPANY, LIMITED, priority 2012, dated 2016):

Key:
Format in all cases: in vivo
[1] = tested on: Ivyleaf morningglory; assay: Herbicidal effect in pots sown with ethaboxam-treated soybean seeds, PPO inhibitor sprayed on soil (Example 1); settings: soybean pot, day 7 after sowing, scale 0 to 100
Experimental: In a plastic cup of 100 mm in inside diameter and 40 mm in height, 10.5 mg of an ethaboxam suspension (a suspension containing 34.6% of ethaboxam, manufactured by Valent USA Corp.) and 40 soybean seeds were placed. The plastic cup was shaken by the hand so that the ethaboxam suspension was attached to the soybean seeds. The weight of 40 soybean seeds was 12.1 g, and the amount of ethaboxam by the above treatment was calculated as 30 g per 100 kg of the soybean seeds. In the same manner, 104.9 mg of the ethaboxam suspension was attached to 40 soybean seeds. The weight of 40 soybean seeds was 12.1 g, and the amount of ethaboxam by the above treatment was calculated as 300 g per 100 kg of the soybean seeds. A soil was packed in a plastic pot of 120 mm in inside diameter×80 mm in height. The above treated soybean seeds were sown in this pot at a rate of two seeds per pot, and the seeds of ivyleaf morningglory were sown at a rate of four seeds per pot. On the day of sowing the soybean seeds and after sowing the soybean seeds, an aqueous diluted solution (113 mg of active ingredient/L or 225 mg of active ingredient/L) of a flumioxazin granular wettable powder (a granular wettable powder containing 51% of flumioxazin, trade name: Valor SX, manufactured by Valent USA), an aqueous diluted solution (226 mg of active ingredient/L or 1130 mg of active ingredient/L) of a sulfentrazone granular wettable powder (a granular wettable powder containing 75% of sulfentrazone, trade name: Cover, manufactured by DuPont), or an aqueous diluted solution (113 mg/L or 226 mg/L) of saflufenacil was uniformly sprayed on the soil surface with a sprayer so as to apply the amount described in Tables 1 to 3. […] On day 7 after sowing the seeds of soybean and ivyleaf morningglory, the herbicidal effect was investigated.

[2] = tested on: Ivyleaf morningglory; assay: Herbicidal effect in pots sown with ethaboxam-treated corn seeds, PPO inhibitor sprayed on soil (Example 2); settings: corn pot, day 7 after sowing, scale 0 to 100
Experimental: In a plastic cup of 100 mm in inside diameter and 40 mm in height, 13.4 mg of an ethaboxam suspension (a suspension containing 34. 6% of ethaboxam, manufactured by Valent USA Corp.) and 40 corn seeds were placed. The plastic cup was shaken by the hand so that the ethaboxam suspension was attached to the corn seeds. The weight of 40 corn seeds was 15.5 g, and the amount of ethaboxam by the above treatment was calculated as 30 g per 100 kg of the corn seeds. In the same manner, 138.7 mg of the ethaboxam suspension was attached to 40 corn seeds. The weight of 40 corn seeds was 16.0 g, and the amount of ethaboxam by the above treatment was calculated as 300 g per 100 kg of the corn seeds. A soil was packed in a plastic pot of 120 mm in inside diameter×80 mm in height. The above treated corn seeds were sown in this pot at a rate of two seeds per pot, and the seeds of ivyleaf morningglory were sown at a rate of four seeds per pot. On the day of sowing the corn seeds and after sowing the corn seeds, an aqueous diluted solution (113 mg of active ingredient/L or 225 mg of active ingredient/L) of a flumioxazin granular wettable powder (a granular wettable powder containing 51% of flumioxazin, trade name: Valor SX, manufactured by Valent USA), an aqueous diluted solution (226 mg of active ingredient/L or 1130 mg of active ingredient/L) of a sulfentrazone granular wettable powder (a granular wettable powder containing 75% of sulfentrazone, trade name: Cover, manufactured by DuPont), or an aqueous diluted solution (113 mg/L or 226 mg/L) of saflufenacil was uniformly sprayed on the soil surface with a sprayer so as to apply the amount described in Tables 4 to 6. […] On day 7 after sowing the seeds of corn and ivyleaf morningglory, the herbicidal effect was investigated.

[3] = tested on: Ivyleaf morningglory; assay: Herbicidal effect in pots sown with ethaboxam-treated cotton seeds, PPO inhibitor sprayed on soil (Example 3); settings: cotton pot, day 7 after sowing, scale 0 to 100
Experimental: In a plastic cup of 100 mm in inside diameter and 40 mm in height, 5.7 mg of an ethaboxam suspension (a suspension containing 34.6% of ethaboxam, manufactured by Valent USA Corp.) and 40 cotton seeds were placed. The plastic cup was shaken by the hand so that the ethaboxam suspension was attached to the cotton seeds. The weight of 40 cotton seeds was 6.6 g, and the amount of ethaboxam by the above treatment was calculated as 30 g per 100 kg of the cotton seeds. In the same manner, 56.7 mg of the ethaboxam suspension was attached to 40 cotton seeds. The weight of 40 cotton seeds was 6.55 g, and the amount of ethaboxam by the above treatment was calculated as 300 g per 100 kg of the cotton seeds. A soil was packed in a plastic pot of 120 mm in inside diameter×80 mm in height. The above cotton seeds were sown in this pot at a rate of two seeds per pot, and the seeds of ivyleaf morningglory were sown at a rate of four seeds per pot. On the day of sowing the cottonseeds and after sowing the cotton seeds, an aqueous diluted solution (113 mg of active ingredient/L or 225 mg of active ingredient/L) of a flumioxazin granular wettable powder (a granular wettable powder containing 51% of flumioxazin, trade name: Valor SX, manufactured by Valent USA), an aqueous diluted solution (226 mg of active ingredient/L or 1130 mg of active ingredient/L) of a sulfentrazone granular wettable powder (a granular wettable powder containing 75% of sulfentrazone, trade name: Cover, manufactured by DuPont), or an aqueous diluted solution (113 mg/L or 226 mg/L) of saflufenacil was uniformly sprayed on the soil surface with a sprayer so as to apply the amount described in Tables 7 to 9. […] On day 7 after sowing the seeds of cotton and ivyleaf morningglory, the herbicidal effect was investigated.

[4] = ethaboxam 30 g/100 kg of seeds, no PPO inhibitor
[5] = ethaboxam 300 g/100 kg of seeds, no PPO inhibitor
[6] = no ethaboxam, flumioxazin 100 g/ha
[7] = no ethaboxam, saflufenacil 100 g/ha
[8] = no ethaboxam, sulfentrazone 500 g/ha

`CCNc1nc(CC)c(C(=O)NC(C#N)c2cccs2)s1` (centres unmarked) [ethaboxam] was tested, and the “Herbicidal effect Ivyleaf morningglory” value [1, 4] was 0, the “Herbicidal effect Ivyleaf morningglory” value [1, 5] was 0 and the “Herbicidal effect Ivyleaf morningglory” value [2, 4] was 0. The “Herbicidal effect Ivyleaf morningglory” value [2, 5] was 0, the “Herbicidal effect Ivyleaf morningglory” value [3, 4] was 0 and the “Herbicidal effect Ivyleaf morningglory” value [3, 5] was 0.
In the case of `C#CCN1C(=O)COc2cc(F)c(N3C(=O)C4=C(CCCC4)C3=O)cc21` [flumioxazin], the “Herbicidal effect Ivyleaf morningglory” value [2, 6] is reported as 30 and the “Herbicidal effect Ivyleaf morningglory” value [3, 6] is reported as 30.
With `CC(C)N(C)S(=O)(=O)NC(=O)c1cc(-n2c(=O)cc(C(F)(F)F)n(C)c2=O)c(F)cc1Cl` [saflufenacil] the “Herbicidal effect Ivyleaf morningglory” value [1, 7] was 50, the “Herbicidal effect Ivyleaf morningglory” value ([3]; no ethaboxam, saflufenacil 50 g/ha) was 20 and the “Herbicidal effect Ivyleaf morningglory” value [3, 7] was 70.
In the case of `Cc1nn(-c2cc(NS(C)(=O)=O)c(Cl)cc2Cl)c(=O)n1C(F)F` [sulfentrazone], the “Herbicidal effect Ivyleaf morningglory” value ([2]; no ethaboxam, sulfentrazone 100 g/ha) is reported as 30, the “Herbicidal effect Ivyleaf morningglory” value [2, 8] is reported as 70 and the “Herbicidal effect Ivyleaf morningglory” value [3, 8] is reported as 40.
